Experimental data taken from the supplement of paper PMC10307832.

Experiments:
Test in all cases: relative viability (nuclei count vs DMSO), 5 days (fraction); higher = more cells survive
NCI-H2009 = tested on: NCI-H2009
In short: (§1)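 Lung cancer cell lines were seeded in 1536-well plates and dosed by pin tool the next day, with either a single drug or a fixed anchor-drug dose combined with five library-drug doses (not always all listed) spaced in √10 steps. Five days later, one step fixed the cells and stained their nuclei (final 0.05% Triton X-100, 1% formaldehyde, 1 ug/ml Hoechst), and nuclei were counted on 4× images. Relative viability is the nuclei count in treated wells divided by the count in vehicle wells, and each value is the median of duplicate plates.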

LCLC-103H = tested on: LCLC-103H
In short: as §1

NCI-H661 = tested on: NCI-H661
In short: as §1

COR-L23 = tested on: COR-L23
In short: as §1

HCC-827 = tested on: HCC-827
In short: as §1

LC-2-ad = tested on: LC-2-ad
In short: as §1

UMC-11 = tested on: UMC-11
In short: as §1

NCI-H1437 = tested on: NCI-H1437
In short: as §1

PC-3 [JPC-3] = tested on: PC-3 [JPC-3]
In short: as §1

PC-14 = tested on: PC-14
In short: as §1

NCI-H23 = tested on: NCI-H23
In short: as §1

NCI-H2085 = tested on: NCI-H2085
In short: as §1

H3255 = tested on: H3255
In short: as §1

NCI-H2087 = tested on: NCI-H2087
In short: as §1

HCC-15 = tested on: HCC-15
In short: as §1

HCC-366 = tested on: HCC-366
In short: as §1

SK-MES-1 = tested on: SK-MES-1
In short: as §1

NCI-H1975 = tested on: NCI-H1975
In short: as §1

NCI-H2228 = tested on: NCI-H2228
In short: as §1

NCI-H1666 = tested on: NCI-H1666
In short: as §1

LXF-289 = tested on: LXF-289
In short: as §1

Structure (SMILES): Cc1cn(-c2cc(NC(=O)c3ccc(C)c(Nc4nccc(-c5cccnc5)n4)c3)cc(C(F)(F)F)c2)cn1 [Nilotinib] + Cc1nc(NC(=O)N2CCC[C@H]2C(N)=O)sc1-c1ccnc(C(C)(C)C(F)(F)F)c1 [Alpelisib] (partner 2 µM)
- relative viability (NCI-H2009; first compound 0.001 µM): 1.13
- relative viability (NCI-H2009; first compound 0.003162 µM): 1.2
- relative viability (NCI-H2009; first compound 0.01 µM): 1.25
- relative viability (NCI-H2009; first compound 0.03162 µM): 1.14
- relative viability (NCI-H2009; first compound 0.1 µM): 1.14
- relative viability (LCLC-103H; first compound 0.001 µM): 1.03
- relative viability (LCLC-103H; first compound 0.003162 µM): 1.09
- relative viability (LCLC-103H; first compound 0.03162 µM): 1
- relative viability (LCLC-103H; first compound 0.1 µM): 0.956
- relative viability (NCI-H661; first compound 0.001 µM): 0.647
- relative viability (NCI-H661; first compound 0.003162 µM): 0.592
- relative viability (NCI-H661; first compound 0.01 µM): 0.721
- relative viability (NCI-H661; first compound 0.03162 µM): 0.366
- relative viability (NCI-H661; first compound 0.1 µM): 0.651
- relative viability (COR-L23; first compound 0.001 µM): 0.873
- relative viability (COR-L23; first compound 0.03162 µM): 0.901
- relative viability (COR-L23; first compound 0.1 µM): 0.791
- relative viability (HCC-827; first compound 0.001 µM): 1.1
- relative viability (HCC-827; first compound 0.003162 µM): 1.09
- relative viability (HCC-827; first compound 0.01 µM): 1.03
- relative viability (HCC-827; first compound 0.1 µM): 0.92
- relative viability (LC-2-ad; first compound 0.001 µM): 0.876
- relative viability (LC-2-ad; first compound 0.003162 µM): 1
- relative viability (LC-2-ad; first compound 0.01 µM): 1.03
- relative viability (LC-2-ad; first compound 0.03162 µM): 0.918
- relative viability (LC-2-ad; first compound 0.1 µM): 0.833
- relative viability (UMC-11; first compound 0.001 µM): 0.928
- relative viability (UMC-11; first compound 0.003162 µM): 1.15
- relative viability (UMC-11; first compound 0.01 µM): 1.07
- relative viability (UMC-11; first compound 0.1 µM): 1.22
- relative viability (NCI-H1437; first compound 0.001 µM): 0.829
- relative viability (NCI-H1437; first compound 0.003162 µM): 1.17
- relative viability (NCI-H1437; first compound 0.01 µM): 1.39
- relative viability (NCI-H1437; first compound 0.03162 µM): 0.75
- relative viability (NCI-H1437; first compound 0.1 µM): 0.971
- relative viability (PC-3 [JPC-3]; first compound 0.001 µM): 0.987
- relative viability (PC-3 [JPC-3]; first compound 0.003162 µM): 1.27
- relative viability (PC-3 [JPC-3]; first compound 0.01 µM): 1.26
- relative viability (PC-3 [JPC-3]; first compound 0.03162 µM): 1.05
- relative viability (PC-3 [JPC-3]; first compound 0.1 µM): 0.982
- relative viability (PC-14; first compound 0.003162 µM): 1.08
- relative viability (PC-14; first compound 0.03162 µM): 0.547
- relative viability (PC-14; first compound 0.1 µM): 0.888
- relative viability (NCI-H23; first compound 0.001 µM): 0.654
- relative viability (NCI-H23; first compound 0.003162 µM): 0.784
- relative viability (NCI-H23; first compound 0.01 µM): 0.773
- relative viability (NCI-H23; first compound 0.03162 µM): 0.536
- relative viability (NCI-H23; first compound 0.1 µM): 0.665
- relative viability (NCI-H2085; first compound 0.001 µM): 0.967
- relative viability (NCI-H2085; first compound 0.003162 µM): 1.05
- relative viability (NCI-H2085; first compound 0.01 µM): 1.07
- relative viability (NCI-H2085; first compound 0.03162 µM): 0.87
- relative viability (NCI-H2085; first compound 0.1 µM): 0.92
- relative viability (H3255; first compound 0.001 µM): 0.681
- relative viability (H3255; first compound 0.003162 µM): 0.699
- relative viability (H3255; first compound 0.01 µM): 0.829
- relative viability (H3255; first compound 0.03162 µM): 0.65
- relative viability (H3255; first compound 0.1 µM): 0.796
- relative viability (NCI-H2087; first compound 0.001 µM): 0.831
- relative viability (NCI-H2087; first compound 0.003162 µM): 1.08
- relative viability (NCI-H2087; first compound 0.01 µM): 1.23
- relative viability (NCI-H2087; first compound 0.03162 µM): 0.938
- relative viability (NCI-H2087; first compound 0.1 µM): 0.794
- relative viability (HCC-15; first compound 0.001 µM): 0.824
- relative viability (HCC-15; first compound 0.003162 µM): 1.11
- relative viability (HCC-15; first compound 0.01 µM): 1.05
- relative viability (HCC-15; first compound 0.03162 µM): 0.727
- relative viability (HCC-15; first compound 0.1 µM): 0.616
- relative viability (HCC-366; first compound 0.001 µM): 0.312
- relative viability (HCC-366; first compound 0.003162 µM): 0.43
- relative viability (HCC-366; first compound 0.01 µM): 0.428
- relative viability (HCC-366; first compound 0.03162 µM): 0.248
- relative viability (HCC-366; first compound 0.1 µM): 0.342
- relative viability (SK-MES-1; first compound 0.001 µM): 0.881
- relative viability (SK-MES-1; first compound 0.003162 µM): 1.15
- relative viability (SK-MES-1; first compound 0.01 µM): 0.95
- relative viability (SK-MES-1; first compound 0.03162 µM): 0.829
- relative viability (SK-MES-1; first compound 0.1 µM): 1.01
- relative viability (NCI-H1975; first compound 0.001 µM): 0.723
- relative viability (NCI-H1975; first compound 0.003162 µM): 0.867
- relative viability (NCI-H1975; first compound 0.01 µM): 0.868
- relative viability (NCI-H1975; first compound 0.03162 µM): 0.737
- relative viability (NCI-H1975; first compound 0.1 µM): 0.648
- relative viability (NCI-H2228; first compound 0.001 µM): 0.602
- relative viability (NCI-H2228; first compound 0.003162 µM): 0.763
- relative viability (NCI-H2228; first compound 0.01 µM): 0.814
- relative viability (NCI-H2228; first compound 0.03162 µM): 0.813
- relative viability (NCI-H2228; first compound 0.1 µM): 0.455
- relative viability (NCI-H1666; first compound 0.001 µM): 0.877
- relative viability (NCI-H1666; first compound 0.003162 µM): 1.14
- relative viability (NCI-H1666; first compound 0.01 µM): 0.956
- relative viability (NCI-H1666; first compound 0.03162 µM): 0.831
- relative viability (NCI-H1666; first compound 0.1 µM): 0.856
- relative viability (LXF-289; first compound 0.001 µM): 1.02
- relative viability (LXF-289; first compound 0.003162 µM): 1.26
- relative viability (LXF-289; first compound 0.01 µM): 1.23
- relative viability (LXF-289; first compound 0.03162 µM): 0.935
- relative viability (LXF-289; first compound 0.1 µM): 0.93
